Here are results for eight compounds from ChEMBL document CHEMBL1201862, “PubChem BioAssay data set” (2004).

The structures appear in SMILES notation.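 Grown in 96-well plates, cells were treated for 48 hours with each compound at five concentrations. Insufficient inhibition: endpoint recorded as highest concentration tested. GI50: concentration for 50% inhibition of growth.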 The source made the active and inactive calls. Cut-off read from the data, not from the text of the source: active = GI50 up to about 1.1 µM and inactive = higher.

Test systems include SF-295; HCC 2998; Hs-578T; NCI-H23; OVCAR-8; UO-31; MDA-N; MDA-MB-435; 786-0; SR; RPMI-8226; UACC-62; Malme-3M; NCI-H226; TK-10; OVCAR-3; OVCAR-4; NCI-H522; LOX IMVI; SNB-75.
Experiment in all cases: inhibition of tumour cell growth, NCI panel, 48 h

`COc1cc(/C=C(\C#N)c2nc3ccccc3o2)ccc1O`: the GI50 in the assay on SF-295 was 17.6 µM (inactive); with HCC 2998, 20.9 µM (inactive); with Hs-578T it was 23.1 µM (inactive); in the assay on NCI-H23, 24.2 µM (inactive); in the assay with OVCAR-8, 21.6 µM (inactive); in the assay on UO-31, 25.5 µM (inactive). The GI50 was 23 µM (inactive) in the assay with MDA-N; 16.4 µM (inactive) with MDA-MB-435; 24.9 µM (inactive) with 786-0; 24.2 µM (inactive) in the assay with SR; 21 µM (inactive) with RPMI-8226; 18.6 µM (inactive) in the assay on UACC-62. For the same compound, the GI50 in the assay with Malme-3M was 19.8 µM (inactive); in the assay with NCI-H226, 15.4 µM (inactive); in the assay with TK-10, 24.4 µM (inactive); in the assay with OVCAR-3, 14 µM (inactive); in the assay on OVCAR-4, 11.2 µM (inactive); with NCI-H522, 13.3 µM (inactive).
For `Cc1c(-c2ccccc2)[nH]c2cc(Cl)ccc2c1=O`, the GI50 with HCC 2998 was > 100 µM (inactive); in the assay with Hs-578T, 14.8 µM (inactive); with NCI-H23 it was 36.3 µM (inactive); in the assay with UO-31, 0.0135 µM (active); with MDA-N, 10.2 µM (inactive); in the assay with LOX IMVI, 89.5 µM (inactive). For the same compound, the GI50 was 12 µM (inactive) in the assay with MDA-MB-435; 18.7 µM (inactive) with SR; > 100 µM (inactive) in the assay on RPMI-8226; 54.6 µM (inactive) with UACC-62; 65 µM (inactive) in the assay on Malme-3M; 21.1 µM (inactive) with NCI-H226. The GI50 in the assay on TK-10 was 38 µM (inactive); in the assay with OVCAR-3 it was 56.9 µM (inactive); with OVCAR-4 it was 22.9 µM (inactive).
`CN1C(C)(C)CC(=O)C(Br)C1(C)C` (stereo unspecified): the GI50 in the assay on SF-295 is > 100 µM (inactive); with SNB-75 it was 61.8 µM (inactive); in the assay on Hs-578T, > 100 µM (inactive); with NCI-H23 it was > 100 µM (inactive); in the assay on OVCAR-8 it was > 100 µM (inactive); in the assay with UO-31 it was > 100 µM (inactive). The GI50 in the assay on MDA-N, in the assay with LOX IMVI, in the assay with MDA-MB-435, with 786-0, in the assay on SR and in the assay on RPMI-8226 was > 100 µM (inactive) each time. Moreover, the GI50 in the assay on UACC-62, in the assay on Malme-3M, with NCI-H226, in the assay on TK-10, in the assay on OVCAR-3 and in the assay on OVCAR-4 was > 100 µM (inactive) throughout. For the same compound, the GI50 in the assay on NCI-H522 is > 100 µM (inactive).
As to `COc1ccc(Nc2nc(N)c(C(=O)c3cccs3)s2)cc1`, the GI50 was 10.9 µM (inactive) in the assay on SF-295; 0.931 µM (active) in the assay on HCC 2998; 11.5 µM (inactive) in the assay with Hs-578T; 12.8 µM (inactive) with NCI-H23; 19.2 µM (inactive) with OVCAR-8; 6.1 µM (inactive) in the assay with UO-31. Further, the GI50 in the assay on MDA-N is 3.92 µM (inactive); with LOX IMVI, 6.67 µM (inactive); in the assay with MDA-MB-435 it was 1.24 µM (inactive); in the assay on 786-0 it was 8.49 µM (inactive); in the assay on SR, 0.682 µM (active); in the assay with RPMI-8226 it was 5.92 µM (inactive). Also, the GI50 in the assay on UACC-62 is 11.3 µM (inactive); in the assay on Malme-3M, 30.1 µM (inactive); in the assay with NCI-H226 it was 5.86 µM (inactive); in the assay with TK-10 it was 5.08 µM (inactive); in the assay with OVCAR-3, 3.47 µM (inactive); in the assay with OVCAR-4 it was 9.73 µM (inactive). Moreover, in the assay with NCI-H522, the GI50 was 5.09 µM (inactive).
Consider `CSC1=Nc2ccccc2-c2nc3ccccc3cc2C1`, for which the GI50 in the assay on SF-295, in the assay on HCC 2998, in the assay with Hs-578T, in the assay on NCI-H23, with OVCAR-8 and with UO-31 was > 100 µM (inactive) in each case. The GI50 was > 100 µM (inactive) with MDA-N; > 100 µM (inactive) in the assay on LOX IMVI; > 100 µM (inactive) with MDA-MB-435; > 100 µM (inactive) in the assay with 786-0; 29.9 µM (inactive) in the assay on SR; > 100 µM (inactive) in the assay on UACC-62. Moreover, the GI50 in the assay with Malme-3M was > 100 µM (inactive); in the assay with NCI-H226, > 100 µM (inactive); in the assay on TK-10 it was > 100 µM (inactive); with OVCAR-3, > 100 µM (inactive); in the assay with OVCAR-4, > 100 µM (inactive); in the assay with NCI-H522 it was 69.2 µM (inactive).
As for `O=C(Cn1c2ccc(Br)cc2c2nc3ccccc3nc21)NNC(=O)NC1CCCCC1`, the GI50 in the assay on SF-295 is 34.3 µM (inactive); in the assay with SNB-75 it was 23.2 µM (inactive); with HCC 2998, > 100 µM (inactive); in the assay with Hs-578T, 24.4 µM (inactive); with NCI-H23, 61.4 µM (inactive); in the assay with OVCAR-8, 35.9 µM (inactive). Besides, the GI50 with UO-31 is 2.52 µM (inactive); in the assay with MDA-N, 44 µM (inactive); in the assay with LOX IMVI it was 41.4 µM (inactive); with MDA-MB-435, 32.7 µM (inactive); with 786-0 it was 44.3 µM (inactive); in the assay on SR it was 31 µM (inactive). Further, the GI50 in the assay with RPMI-8226 was > 100 µM (inactive); in the assay on UACC-62 it was > 100 µM (inactive); in the assay on Malme-3M, 52.2 µM (inactive); in the assay on TK-10 it was 42.8 µM (inactive); with OVCAR-3, 63.5 µM (inactive); with OVCAR-4 it was 13.8 µM (inactive). Also, the GI50 with NCI-H522 was 72.8 µM (inactive).
As for `CCOC(=O)C1C(=O)C=C(c2cc(C)ccc2O)CC1c1cccc(Cl)c1` (stereo unspecified), the GI50 was 23.9 µM (inactive) with SF-295; 24.5 µM (inactive) in the assay with HCC 2998; 21 µM (inactive) in the assay with Hs-578T; 26.4 µM (inactive) in the assay with NCI-H23; 29.3 µM (inactive) in the assay on OVCAR-8; 19.6 µM (inactive) in the assay on UO-31. Moreover, the GI50 in the assay on MDA-N was 6.04 µM (inactive); in the assay on LOX IMVI, 24.2 µM (inactive); in the assay with MDA-MB-435, 2.78 µM (inactive); with 786-0 it was 36.6 µM (inactive); with SR it was 5.21 µM (inactive); in the assay on RPMI-8226 it was 18.7 µM (inactive). Moreover, the GI50 in the assay on UACC-62 is 13.9 µM (inactive); in the assay with Malme-3M, 17.3 µM (inactive); in the assay with NCI-H226, 24.5 µM (inactive); in the assay on TK-10 it was 20.3 µM (inactive); in the assay with OVCAR-3, 32 µM (inactive); with OVCAR-4 it was 17.5 µM (inactive). For the same compound, in the assay with NCI-H522, the GI50 was 12.4 µM (inactive).
On to `COc1cc2ccccc2c2cc([N+](=O)[O-])oc12`, for which the GI50 with SF-295 is 1.39 µM (inactive); with SNB-75, 2.62 µM (inactive); with Hs-578T, 2.28 µM (inactive); with NCI-H23, 1.2 µM (inactive); in the assay with OVCAR-8 it was 1.9 µM (inactive); with UO-31, 0.618 µM (active). In addition, the GI50 in the assay on MDA-N was 0.216 µM (active); with LOX IMVI it was 0.314 µM (active); in the assay with MDA-MB-435, 0.214 µM (active); in the assay with 786-0, 0.374 µM (active); in the assay on SR it was 0.0859 µM (active); in the assay with RPMI-8226, 0.619 µM (active). The GI50 in the assay with UACC-62 is 0.809 µM (active); with Malme-3M, 0.126 µM (active); in the assay on NCI-H226, 1.11 µM (active); in the assay on TK-10, 0.173 µM (active); with OVCAR-3 it was 1.43 µM (inactive); in the assay with OVCAR-4, 3.48 µM (inactive). In addition, the GI50 in the assay on NCI-H522 is 0.183 µM (active).
